Measured values: ChEMBL document CHEMBL3745604, “Synthesis, Biological Activities, and X-ray Crystal Structural Analysis of 25-Hydroxy-25(or 26)-adamantyl-17-[20(22),23-diynyl]-21-norvitamin D Compounds” (J Med Chem, 2015)
pEC50, pIC50: −log10 of the molar value. Calls of active or inactive are those of the source. The calls are words filed in the database; no cut-off is given here.

What was measured:
Vitamin D3 receptor [1] = biological target: T1, Vitamin D3 receptor (Homo sapiens, UniProt P11473); assay: Displacement of [3H]-1,25(OH)2D3 from recombinant human VDR ligand binding domain
T1 sequence (P11473 whole entry): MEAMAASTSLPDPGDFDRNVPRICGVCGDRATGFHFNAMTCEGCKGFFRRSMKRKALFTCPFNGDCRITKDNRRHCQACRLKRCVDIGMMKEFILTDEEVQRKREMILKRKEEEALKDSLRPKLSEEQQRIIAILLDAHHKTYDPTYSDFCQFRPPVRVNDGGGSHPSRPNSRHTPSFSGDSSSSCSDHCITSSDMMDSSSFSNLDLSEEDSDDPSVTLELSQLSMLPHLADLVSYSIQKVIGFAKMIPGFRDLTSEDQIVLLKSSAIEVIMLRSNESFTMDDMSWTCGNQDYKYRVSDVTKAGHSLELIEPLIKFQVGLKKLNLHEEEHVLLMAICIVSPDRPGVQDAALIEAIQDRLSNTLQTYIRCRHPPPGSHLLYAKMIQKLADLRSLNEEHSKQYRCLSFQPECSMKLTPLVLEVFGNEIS

[2] = biological target: T2, Vitamin D3 receptor (Homo sapiens) (UniProt P11473); assay: (§1) Agonist activity at VDR (unknown origin) expressed in HEK293 cells cotransfected with RXRalpha assessed as RXRalpha recruitment by two-hybrid assay; type: cell-based
T2 sequence (whole entry): T1 sequence (P11473 whole entry)

[3] = biological target: T2, Vitamin D3 receptor (Homo sapiens); assay: Partial agonist activity at VDR in human HEK293 cells assessed as transcriptional activity after 16 to 24 hrs by luciferase reporter gene assay relative to 1,25(OH)2D3; type: cell-based
Vitamin D3 receptor [4] = biological target: T1, Vitamin D3 receptor; assay: Agonist activity at VDR in human HEK293 cells assessed as transcriptional activity after 16 to 24 hrs by luciferase reporter gene assay; type: cell-based
[5] = biological target: T2, Vitamin D3 receptor (Homo sapiens); assay: Displacement of [3H]-1,25(OH)2D3 from recombinant human VDR ligand binding domain relative to 1,25(OH)2D3
[6] = Drug uptake in human MG63 cells at 1 uM after 10 mins by HPLC analysis in presence of 10% FBS; type: ADME, cell-based; settings: mg-63, 10 min
[7] = Metabolic stability in human MG63 assessed as compound metabolized at 1 uM after 24 hrs by HPLC analysis; type: ADME, MG-63; settings: MG63 cells, read-out: Drug metabolism
[8] = Drug uptake in human MG63 cells at 1 uM after 5 mins by HPLC analysis in presence of 10% FBS; type: ADME, cell-based; settings: mg-63, 5 min
Vitamin D3 receptor [9] = biological target: T1, Vitamin D3 receptor; assay: as §1; type: cell-based
Vitamin D3 receptor [10] = biological target: T1, Vitamin D3 receptor; assay: Agonist activity at VDR (unknown origin) expressed in HEK293 cells cotransfected with NCoR assessed as decrease in NCoR recruitment by two-hybrid assay; type: cell-based
Vitamin D3 receptor [11] = biological target: T1, Vitamin D3 receptor; assay: Agonist activity at VDR (unknown origin) expressed in HEK293 cells cotransfected with SRC1 assessed as SRC1 recruitment by two-hybrid assay; type: cell-based

| SMILES | pIC50 (Vitamin D3 receptor [1]) | Activity [2] | Efficacy [3] [%] | pEC50 (Vitamin D3 receptor [4]) | Activity [5] [%] | Drug uptake [6] [%] | metabolised at 24 h, 1 µM [7] [%] | Drug uptake [8] [%] | pEC50 (Vitamin D3 receptor [9]) | pIC50 (Vitamin D3 receptor [10]) | pEC50 (Vitamin D3 receptor [11]) |
| --- | --- | --- | --- | --- | --- | --- | --- | --- | --- | --- | --- |
| C=C1[C@H](O)CC(=C/C=C2\CCC[C@]3(C)[C@@H](C#CC#C[C@H](O)CC45CC6CC(CC(C6)C4)C5)CC[C@@H]23)C[C@H]1O | 7.46 | Active | 59 | 7.52 | 1 | – | – | – | – | – | – |
| C=C1[C@H](O)CC(=C/C=C2\CCC[C@]3(C)[C@@H](C#CC#C[C@H](O)C45CC6CC(CC(C6)C4)C5)CC[C@@H]23)C[C@H]1O | 7.90 | – | 41 | 8.15 | 3 | – | – | – | – | – | – |
| C=C1/C(=C\C=C2/CCC[C@]3(C)[C@@H]([C@H](C)CCCC(C)(C)O)CC[C@@H]23)C[C@@H](O)C[C@@H]1O [CALCITRIOL] | – | – | – | – | – | 2.7 | 25 | 2.5 | – | – | – |
| C=C1[C@H](O)CC(=C/C=C2\CCC[C@]3(C)[C@@H](C#CC#C[C@@H](O)C45CC6CC(CC(C6)C4)C5)CC[C@@H]23)C[C@H]1O | 8.30 | – | 86 | 8.82 | 7 | 7.7 | 8 | 5.9 | 9.15 | 10.05 | 8.35 |
| C=C1[C@H](O)CC(=C/C=C2\CCC[C@]3(C)[C@@H](C#CC#C[C@@H](O)CC45CC6CC(CC(C6)C4)C5)CC[C@@H]23)C[C@H]1O | 7.46 | Active | – | 7.70 | 1 | – | – | – | – | – | – |
